Reference: patent US4895869A, “Phenylene, furyl, and thienyl leukotriene B4 analogues” (C. D. Searle & Co., priority 1988, dated 1990)

Key:
[1] = biological target: T1, LTB4 receptor (Homo sapiens, UniProt Q15722); test: LTB4 Receptor Binding Assay (inhibition of specific binding of (3H) LTB4 to human neutrophils); conditions: 0.6 nM (3H) LTB4, 0° C., 45 minutes; for IC50: pH 7.4
T1 construct: neutrophils were purified from venous blood of normal human donors; endogenous in cells; host or cells: neutrophils purified from venous blood of normal human donors (purity at least 95%)
T1 sequence (Q15722 whole entry): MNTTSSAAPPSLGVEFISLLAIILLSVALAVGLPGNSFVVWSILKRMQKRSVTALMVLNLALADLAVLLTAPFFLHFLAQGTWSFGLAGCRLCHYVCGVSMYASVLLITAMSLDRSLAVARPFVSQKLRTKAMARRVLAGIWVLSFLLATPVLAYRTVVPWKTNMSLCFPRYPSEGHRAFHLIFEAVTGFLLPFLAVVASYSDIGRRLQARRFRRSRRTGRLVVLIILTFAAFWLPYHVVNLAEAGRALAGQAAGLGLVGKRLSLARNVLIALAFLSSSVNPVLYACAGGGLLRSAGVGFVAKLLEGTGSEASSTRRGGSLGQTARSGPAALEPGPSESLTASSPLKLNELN
From the text: (§1) For use in both the "LTB4 receptor Binding Assay" and the "human Neutrophil Degranulation Assay", neutrophils were purified from venous blood of normal human donors using standard techniques of dextran sedimentation, centrifugation on Histopaque® (density solution) and hypotonic lysis of erythrocytes (Boyum, A., Isolation of Leukocytes From Human Blood: Further Observations. Scand. J. Lab. Clin. Inves. 21 (Suppl. 97): 31, 1968). The purity of isolated neutrophils was ≥95%.
Neutrophils (4-6×10^6) in 1 ml of Hanks balanced salt solution containing 10 mM Hepes Buffer (HBSS), pH 7.4 and 30 μM nordihydroguaiaretic acid were incubated with 0.6 nM (^3 H) LTB4 in the presence or absence of test compounds. The incubation was carried out at 0° C. for 45 minutes and terminated by adding 5 ml of ice cold HBSS followed by rapid filtration of incubation mixture under vacuum through GF/C glass fiber filters. The filters were further washed with 10 ml HBSS and their radioactivity was determined. Specific binding was defined as the difference between total binding and nonspecific binding which was not displaced by 10-^7 M unlabeled LTB4.
The inhibition of specific binding was determined for representatives compounds of this invention, and the corresponding IC50 values calculated (Table 1). An IC50 is the concentration of the compound of interest which will inhibit the binding of LTB4 by 50% of the LTB4 receptors. For example, for the compound of Example 7, the IC50 was determined to be approximately

[2] = test system: LTB4 induced degranulation of human neutrophils; test: Human Neutrophil Degranulation Assay (LTB4 induced myeloperoxidase release); format: cell-based; conditions: cytochalasin B, LTB4 5×10^-8 M, read-out: Inhibition of LTB4 Induced Neutrophil Degranulation IC50
From the text: as §1
LTB4 induced neutrophil degranulation was determined by measuring the release of myeloperoxidase activity into the incubation medium. Neutrophils (3×10^6) in 1 ml HBSS solution were preincubated with cytochalasin B(5 μg) at 37° C. for 5 minutes, followed by preincubation with test compounds for 7 minutes. Neutrophilsere then incubated for 2 to 20 minutes with either LTB4 (5 ×10^-8 M) or the chemotactic peptide f-met-leu-phe (5×10^-6 M) to induce degranulation. Following incubation, samples were centrifuged and myleoperoxidase was extracted from the cell pellets by sonication in phosphate buffer containing 0.4% Triton X-100. Triton X-100 was also added to the supernatents to a concentration of 0.4%. The supernatants and the pellet extracts were then assayed spectrophotometrically for myeloperoxide activity by determining the rate of decomposition of H2 O2 with o-dianisidine as hydrogen donor as described by Renlund D. G., MacFarlane J. L., Christensen, R. D., Lynch R. E., and Rothstein, G., A Quantitative And Sensitive Method For Measurement Of Mveloperoxidase, Clinical Research 28:75A, 1980). Myeloperoxidase activity released into the supernatant was expressed as the percent of the average total activity (pellet plus supernatant).
The inhibition of LTB4 induced neutrophil degranulation was determined for representative compounds of this invention and their corresponding IC50 values were calculated (Table 1). The concentration of a compound which inhibited LTB4 induced neutrophil degranulation by 50% was determined to be its IC50 value.

| Inhibition of Receptor Binding of LTB4, % inhibition ([1]; at 10 μM) | IC50 [2] | IC50 [1] | Substance |
| --- | --- | --- | --- |
| 20% | 8700 nM | – | 7-[2-[5-(1-hydroxynonyl)thienyl]-5-hydroxy-6Z-heptenoic acid, lithium salt [Example 23] |
| – | 1800 nM | 5000 nM | 7-[2-[5-(1-hydroxynonyl)thienyl]-5-hydroxy-6Z-heptynoic acid, lithium salt [Example 22] |
| – | 650 nM | 1000 nM | Methyl 7-[4-(hydroxynonyl)phenyl]-5-hydroxy-6heptynoate [Example 11] |
